This is an account of results in patent US20240000738A1, “HYDROXYSTEARIC ACID FOR INDUCING GENERATION OF ANTIMICROBIAL PEPTIDES” (Conopco, Inc., d/b/a UNILEVER, priority 2020, published 2024).

Format in all cases: cell-based, Human
One assay relates to Psoriasin (S100A7). The assay is described as follows: AMP secretion from keratinocytes (Psoriasin ELISA). The conditions noted are these: NHEK cells, 72 h, ELISA of supernatant. The text has this: Psoriasin (S100A7) AMP from the above list was chosen to study the effect of concentration of 12-HSA on the secretion of the AMP. The procedure used was as follows: Normal Human Epidermal Keratinocyte cells (NHEK), EpiLife Keratinocyte Growth Medium (KGM) (with antibiotics Pen-Strep), Dulbecco's Phosphate Buffered Salone (DPBS), Trypsin-EDTA, Trypsin Neutralizer Solution, Ethanol, Psoriasin ELISA Kit. • 1. Thaw the NHEK cells and expand them in KGM in 2 -25 cc and then 75 cc flasks to 80% confluency, changing media every alternate day and incubating at 37° C. in a 5% CO2 incubator. • 2. Discard spent media and rinse the adhered cells in the flask with DPBS. Add Trypsin-EDTA and tap to dislodge the adhered cells. Add Trypsin Neutralizer and gently mix it. • 3. Transfer the contents to a 15-ml tube and spin down the cells. Discard supernatant and resuspend cells in KGM. Count and seed 30,000-50,000 cells per well in 24 well TC plates, incubate to 80-85% confluence (˜2-3 days). Change media every alternate day. Add differentiation media (KGM with 2 mM CaCl2) and incubate for 2-3 days. • 4. Prepare actives in KGM at the required concentration (final concentration of ethanol solvent, if used, should be less than 0.1%). • 5. Replace the differentiation media with the actives containing media and incubate for 72 h • 6. Collect supernatant and store at −80° C. Thaw them completely before performing ELISA to measure AMP (Psoriasin). • 7. For ELISA, run the required standards and samples (undiluted and diluted) and using standard plot, the amount of AMP in samples calculated.
A general note: In an ELISA, binding on a coated surface is turned into a signal by an enzyme label.

For another assay, the system named is LL-37. The assay is described as follows: AMP gene expression in keratinocytes (real time qPCR), LL-37. The conditions noted are these: NHEK cells, 12HSA at 1 μM (=0.00003 wt %), 24 h. The text has this: (§1) The following protocol was used for evaluating actives (12-HSA) on keratinocytes for AMP gene expression Normal Human Epidermal Keratinocyte cells (NHEK), EpiLife Keratinocyte Growth Medium (KGM) (with antibiotics Pen-Strep), Dulbecco's Phosphate Buffered Salone (DPBS), Trypsin-EDTA, Trypsin Neutralizer Solution, Ethanol, RNA extraction kit (RNeasy kit), RLT buffer, RT-PCR kit. • 1. Thaw the NHEK cells and expand them in KGM in 2-25 cc and then 75 cc flasks to 80% confluency, changing media every alternate day and incubating at 37° C. in a 5% CO2 incubator. • 2. Discard spent media and rinse the adhered cells in the flask with DPBS. Add Trypsin-EDTA and tap to dislodge the adhered cells. Add Trypsin Neutralizer and gently mix it. • 3. Transfer the contents to a 15-ml tube and spin down the cells. Discard supernatant and resuspend cells in KGM. Count and seed 30,000-50,000 cells per well in 24 well TC plates, incubate to 80-85% confluence (˜2-3 days). Change media every alternate day. Add differentiation media (KGM with 2 mM CaCl2) and incubate for 2-3 days. • 4. Prepare actives in KGM at the required concentration (final concentration of ethanol solvent, if used, should be less than 0.1%). • 5. […] Perform RNA extraction as per the kit, quantify the RNA, do cDNA synthesis and do real time qPCR for cDNA samples. […]
On the technique in general: Real-time PCR tracks product formation cycle by cycle.

The subject of another assay is HBD-3. Briefly: AMP gene expression in keratinocytes (real time qPCR), HBD-3. The conditions noted are these: NHEK cells, 12HSA at 1 μM (=0.00003 wt %), 24 h.
Description: as §1

The test system of another assay is RNase7. The assay is described as follows: AMP gene expression in keratinocytes (real time qPCR), RNase7. The conditions noted are these: NHEK cells, 12HSA at 1 μM (=0.00003 wt %), 24 h.
Description: as §1

The test system of the next assay is S100A7. Briefly: AMP gene expression in keratinocytes (real time qPCR), S100A7. The conditions noted are these: NHEK cells, 12HSA at 1 μM (=0.00003 wt %), 24 h.
Description: as §1

Regarding `CCCCCCC(O)CCCCCCCCCCC(=O)O` (centres unmarked) [12-HSA, 12-hydroxystearic acid], the “Fold change with respect to control (Psoriasin increase)” value is given as 8.12 fold in the assay on Psoriasin (S100A7) (0.25 μM 12-HSA), 15.07 fold in the assay with Psoriasin (S100A7) (0.50 μM 12-HSA), 9.79 fold with Psoriasin (S100A7) (1.0 μM 12-HSA) and 15.70 fold with Psoriasin (S100A7) (2.0 μM 12-HSA). Moreover, the “Fold change with respect to control, AMP gene LL-37” value with LL-37 came to 2.09 fold. Further, the “Fold change with respect to control, AMP gene HBD-3” value in the assay with HBD-3 came to 2.16 fold. For the same molecule, the “Fold change with respect to control, AMP gene RNase7” value with RNase7 was 2.56 fold. Further, the “Fold change with respect to control, AMP gene S100A7” value in the assay on S100A7 amounted to 1.66 fold.
